This is an account of results in patent publication US4137318A, “N-(phenylalkylamino-alkyl)-dihydroisoquinolinones, pharmaceutical compositions and methods employing them” (Boehringer Ingelheim GmbH, priority 1976, dated 1979).

Series [1] deals with heart rate. Description: Bradycardiac test: effect of test compound on the heart rate of anesthetized cats. It is filed as in vivo. The protocol:
The effect of the test compound on the heart rate was tested at various dosage levels on 2-4 cats of both sexes per dose. The average body weight of the cats was 2.5-3.5 kg. For this purpose the animals were anesthetized with nembutal (30 mgm/kg i.p.) and chloralose-urethane (40 mgm/ml chloralose + 200 mgm/ml urethane as required). The test compound in aqueous solution was injected into the Vena saphena (i.v.) or duodenum (i.p.).
The heart rate was registered before and after administration of the test compound on a Grass-polygraph by means of a Grass-tachograph from the electrocardiogram (precordial lead).

Series [2] in a line: LD50 in mice, i.v., observation time of 14 days. To be noted: mouse, in vivo, iv, observation time of 14 days. From the text: Additionally, it should be noted that at all dosage levels the test compounds were tolerated very well and produced no toxic side-effects.

Regarding `COc1ccc(CCNCCCN2CC(C)(C)c3cc(OC)c(OC)cc3C2=O)cc1OC.Cl` [D, 1-[4,4-dimethyl-6,7-dimethoxy-3,4-dihydro-2H-isoquinolin-1-one-2-yl]-3-[N-(2-(3,4-dimethoxy-phenyl)-ethyl)-amino]-propane hydrochloride], the “Duration of effective action” value in series [1] (1.0 mgm/kg i.v.) turned out to be 6 min; in series [1] (3.0 mgm/kg i.v.), 16 min.

Take `COc1ccc(CCN(C)CCCN2CCc3cc(OC)c(OC)cc3C2=O)cc1OC.Cl` [A, 1-[6,7-dimethoxy-3,4-dihydro-2H-isoquinolin-1-one-2-yl]-3-[N-methyl-N-(2-(3,4-dimethoxy-phenyl)-ethyl)-amino] propane hydrochloride]: the LD50 (as a rule, the dose expected to kill half of the subjects tested) at 336 h in series [2] was found to be 53 mg/kg. In addition, the “Duration of effective action” value in series [1] (0.1 mgm/kg i.v.) turned out to be 30 min; in series [1] (0.3 mgm/kg i.v.), 30 min; in series [1] (1.0 mgm/kg i.v.) it was 50 min; in series [1] (3.0 mgm/kg i.d.), 60 min; in series [1] (10.0 mgm/kg i.v.), 70 min; in series [1] (30.0 mgm/kg i.d.) it was 60 min.

Consider `COc1ccc(CCN(C)CCCN2CCCc3cc(OC)c(OC)cc3C2=O)cc1OC.Cl` [E, 1-[7,8-dimethoxy-1,2,3,4-tetrahydro-5H-2-benzazepin-1-one-2-yl]-3-[N-methyl-N-(2-(3,4-dimethoxy-phenyl)-ethyl)-amino]-propane hydrochloride], for which the “Duration of effective action” value in series [1] (1.0 mgm/kg i.v.) was 30 min; in series [1] (2.0 mgm/kg i.v.), 20 min.

`COc1ccc(CCN(C)CCCN2CC(C)(C)c3cc(OC)c(OC)cc3C2=O)cc1OC.Cl` [C, 1-[4,4-dimethyl-6,7-dimethoxy-3,4-dihydro-2H-isoquinolin-1-one-2-yl]-3-[N-methyl-N-(2-(3,4-dimethoxy-phenyl)-ethyl)-amino]-propane hydrochloride]: the “Duration of effective action” value in series [1] (0.3 mgm/kg i.v.) amounted to 8 min; in series [1] (1.0 mgm/kg i.v.), 11 min; in series [1] (3.0 mgm/kg i.v.), 18 min.

Consider `COc1ccc(CCNCCCN2CCc3cc(OC)c(OC)cc3C2=O)cc1OC.Cl` [B, 1-[6,7-dimethoxy-3,4-dihydro-2H-isoquinolin-1-one-2-yl]-3-[N-(2-(3,4-dimethoxy-phenyl)-ethyl)-amino] propane hydrochloride], for which the “Duration of effective action” value amounted to 22 min in series [1] (0.3 mgm/kg i.v.), 17 min in series [1] (1.0 mgm/kg i.v.) and 43 min in series [1] (2.0 mgm/kg i.v.).
